Experimental findings from PubChem BioAssay (NCI) are described below.

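All cell lines were grown in 96-well plates and treated with compound for 48 hours. TGI: total growth inhibition.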

Common to all, as to test: growth of human tumour cells (NCI), 48 h
Experiment [1] deals with SNB-75 CNS.
Experiment [2] relates to HS 578T breast.
Experiment [3] relates to HL-60(TB) leukemia.
For experiment [4], the system named is A498 renal.
Experiment [5] deals with PC-3 prostate.
Experiment [6] relates to A549 NSCLC.
The subject of experiment [7] is OVCAR-5 ovarian.
The subject of experiment [8] is KM12 colon.
For experiment [9], the system named is HCT-116 colon.
The test system of experiment [10] is NCI-H226 lung.

With `CCOC(=O)C1(C(=O)OCC)OC(C)=NC1(C(=O)OC)C(=O)OC`, the TGI in experiment [1] was 98.1 µM; in [2] it was greater than 100 µM; in experiment [3], greater than 100 µM; in experiment [4], greater than 100 µM; in experiment [5], greater than 100 µM; in experiment [6], greater than 100 µM. The TGI in experiment [7], in experiment [8], in experiment [9] and in experiment [10] was greater than 100 µM throughout.
With `N#Cc1c(-c2ccc(Cl)cc2)[nH]c(=O)n(C2OC(CO)C(O)C(O)C2O)c1=O` (stereo not given), the TGI in [1], in [2], in experiment [3], in experiment [4], in experiment [5] and in experiment [6] was greater than 100 µM each time. Besides, the TGI in experiment [7], in experiment [8], in experiment [9] and in experiment [10] was greater than 100 µM in each case.
As to `N#CC(=N)c1ncn(-c2ccc(N)cc2)c1N`, the TGI in experiment [1], in experiment [2], in experiment [3], in experiment [4], in experiment [5] and in experiment [6] was greater than 100 µM each time. For the same molecule, the TGI in [7], in experiment [8], in experiment [9] and in [10] was greater than 100 µM in each case.
On to `CCOC(=O)C1=NN(c2ccc([N+](=O)[O-])cc2)[C@@]2(C)C[C@]3(c4ccccc4)N(c4ccc([N+](=O)[O-])cc4)N=C(C(=O)OCC)N3c3ccccc3N12`, for which the TGI in [1], in experiment [2], in experiment [3], in experiment [4], in [5] and in experiment [6] was greater than 100 µM in each case. Besides, the TGI in experiment [7], in experiment [8], in experiment [9] and in experiment [10] was greater than 100 µM in each case.
Take `O=C1CSC(c2ccccc2[N+](=O)[O-])N1c1ccc(-c2ccc(-n3c(-c4ccccc4)nc4ccccc4c3=O)cc2)cc1` (stereo not given): the TGI in experiment [1] was 61.3 µM; in experiment [2], greater than 100 µM; in [3] it was greater than 100 µM; in [4], greater than 100 µM; in experiment [5] it was greater than 100 µM; in [6], greater than 100 µM. The TGI in experiment [7], in [8], in experiment [9] and in experiment [10] was greater than 100 µM throughout.
As for `CC(=O)Nc1c(C)cc2c(nc3n2CCC3OC(C)=O)c1[N+](=O)[O-]` (stereo not given), the TGI in experiment [1], in experiment [2], in [3], in experiment [4], in [5] and in experiment [6] was greater than 100 µM in each case. Moreover, the TGI in experiment [7], in experiment [8], in experiment [9] and in [10] was greater than 100 µM in each case.
On to `COc1ccc(CCCNC(=O)c2cc(OC)c(OC)cc2CCO)cc1OC`, for which the TGI in experiment [1], in [2], in experiment [3], in experiment [4], in [5] and in experiment [6] was greater than 100 µM throughout. The TGI in experiment [7], in experiment [8], in experiment [9] and in [10] was greater than 100 µM in each case.
As for `CC(C)=CCC/C(C)=C/CC/C(C)=C/CC/C(C)=C/CC/C(C)=C/CC/C(C)=C/CC/C(C)=C/CC/C(C)=C/CC/C(C)=C/CO`, the TGI in [1], in experiment [2], in experiment [3], in experiment [4], in experiment [5] and in experiment [6] was greater than 100 µM throughout. The TGI in [7], in experiment [8], in [9] and in experiment [10] was greater than 100 µM in each case.
`CC(C)=CC(Cc1ccccc1)S(=O)(=O)c1nc2ccccc2s1` (stereo not given): the TGI in experiment [1] is 41.1 µM; in experiment [2], greater than 80 µM; in experiment [3], 9.62 µM; in [4], 35.5 µM; in experiment [5], 31.9 µM; in [6], 60.1 µM. Further, the TGI in experiment [7] came to 36.7 µM; in experiment [8], 35.8 µM; in [9] it was 28.3 µM; in experiment [10], 29.6 µM.
As to `CC1(C)Cc2nc3c(cc2C(=O)C1C=N/C(C#N)=C(\N)C#N)C(=O)C(C=N/C(C#N)=C(\N)C#N)C(C)(C)C3` (stereo not given), the TGI in experiment [1] stood at 4.17 µM; in experiment [2], 3.32 µM; in experiment [3], 10.1 µM; in experiment [4] it was 15.4 µM; in [5], 5.35 µM; in experiment [6] it was 8.31 µM. Besides, the TGI in experiment [7] was 5.48 µM; in experiment [8] it was 3.38 µM; in experiment [9], 2.96 µM; in [10], 12.7 µM.
Consider `O=C(O)CCSCc1ccccc1`, for which the TGI in experiment [1], in [2], in [3], in [4], in [5] and in experiment [6] was greater than 100 µM throughout. Further, the TGI in experiment [7], in experiment [8], in experiment [9] and in experiment [10] was greater than 100 µM in each case.
`COc1cc(NCCC2CCCCN2)c2ncccc2c1` (stereo not given): the TGI in experiment [1] is greater than 100 µM; in experiment [2] it was greater than 100 µM; in experiment [3] it was 19.1 µM; in experiment [4], greater than 89.6 µM; in experiment [5], greater than 100 µM; in experiment [6], greater than 100 µM. In addition, the TGI in experiment [7] was greater than 100 µM; in experiment [8] it was greater than 100 µM; in [9], greater than 67.6 µM; in experiment [10], 97.9 µM.
For the molecule `C/C=C(\C)C(O)C(C)C(O)C/C=C(C)/C=C(\C)C/C(C)=C/C/C=C(\C)C(O)C(C)c1ccc(CCC)c(=O)o1` (stereo not given), the TGI in [1] is 25.2 µM; in experiment [2], 37.9 µM; in experiment [3] it was greater than 100 µM; in [4] it was 50.6 µM; in [5], 21.3 µM; in [6] it was 27.8 µM. Also, the TGI in experiment [7] stood at 37.9 µM; in experiment [8], 23.8 µM; in [9], 19.7 µM; in [10], 55.6 µM.
